Source: patent publication US4820828A, “Cinnamohydroxamic acids” (Ortho Pharmaceutical Corporation, priority 1987, dated 1989)
Read-outs that look alike come from different tables or passages of the source.

How the values were obtained:
5-lipoxygenase = molecular target: T1, 5-lipoxygenase (Rattus norvegicus, UniProt P12527); test: Inhibition of 5-lipoxygenase in a cell-free homogenate of RBL-1 cells (production of lipoxygenase products from 14C-arachidonic acid); type: biochemical; settings: rat RBL-1 40,000 xg supernatant; for IC50: 50% inhibition of lipoxygenase product generation
T1 construct: The cell-free homogenate was prepared by sonication of the cells followed by centrifugation at 40,000 xg; endogenous in cells; host or cells: RBL-1 (rat basophilic leukemia) cells, 40,000 xg supernatant of the sonicated homogenate
T1 sequence (P12527 1-673): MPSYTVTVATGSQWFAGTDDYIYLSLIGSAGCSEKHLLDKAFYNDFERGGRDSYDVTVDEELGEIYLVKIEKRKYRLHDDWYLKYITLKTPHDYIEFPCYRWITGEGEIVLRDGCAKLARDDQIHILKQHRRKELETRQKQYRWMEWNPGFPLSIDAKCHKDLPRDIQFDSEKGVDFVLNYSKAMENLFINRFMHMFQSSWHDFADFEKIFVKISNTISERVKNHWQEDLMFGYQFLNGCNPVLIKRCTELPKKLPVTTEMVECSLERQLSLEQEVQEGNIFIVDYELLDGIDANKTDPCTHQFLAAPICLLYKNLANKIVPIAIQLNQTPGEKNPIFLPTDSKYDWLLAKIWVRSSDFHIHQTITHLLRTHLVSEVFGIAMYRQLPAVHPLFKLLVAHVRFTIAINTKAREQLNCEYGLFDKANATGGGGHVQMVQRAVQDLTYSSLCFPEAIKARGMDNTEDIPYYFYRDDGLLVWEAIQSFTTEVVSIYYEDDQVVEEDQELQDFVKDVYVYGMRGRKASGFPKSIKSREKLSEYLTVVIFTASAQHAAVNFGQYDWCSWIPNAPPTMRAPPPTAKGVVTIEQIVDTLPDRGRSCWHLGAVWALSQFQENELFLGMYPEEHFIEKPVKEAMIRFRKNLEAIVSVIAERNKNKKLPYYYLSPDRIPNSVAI
Protocol: The inhibition of 5-lipoxygenase was tested in a cell-free homogenate by the procedure of Jakschik, B. et al., Biochem.Biophys.Res.Comm. 95, 103 (1980). Basically, rat basophilic leukemia cells (RBL-1 cells) were maintained in culture in a suitable medium, and were collected by centrifugation prior to assay. The cell-free homogenate was prepared by sonication of the cells followed by centrifugation at 40,000 xg. The CaCl2 dependent production of lipoxygenase products from ^14 C-arachidonic acid in the 40,000 xg supernatant was monitored in the presence of buffer (or other vehicle) or drug. Products were isolated by acidification and extraction, followed by thin layer chromatography. Radioactive areas corresponding to authentic lipoxygenase products were quantitated by liquid scintillation counting. Data was reported as the IC50, the concentration causing 50% inhibition of the generation of lipoxygenase products. The results are shown in Table II as the percent inhibition at 3 μM or the amount of compound necessary to cause 50% inhibition.

[1] = system: Arachidonate Induced Bronchospasm; test: Pulmonary mechanics assay: inhibition of arachidonate induced bronchospasm in anesthetized guinea pigs; type: in vivo, guinea pig (male Hartley); settings: Cavia porcellus, guinea pig, % inhibition of control; for inhibition in vivo at 15 mg/kg: dose 15 mg/kg IV; for inhibition in vivo at 10 mg/kg: dose 10 mg/kg ID; for inhibition in vivo at 100 mg/kg: dose 100 mg/kg ID; for inhibition in vivo at 50 mg/kg: dose 50 mg/kg ID; for inhibition in vivo at 25 mg/kg: dose 25 mg/kg ID
Protocol: The bronchodilating activity of the compounds was tested in a pulmonary mechanics assay. Basically, male Hartley guinea pigs (~400-500 g) were anesthetized with urethane (2 g/kg, i.p.) and placed in a whole body plethysmograph. Cannulations of a jugular vein and carotid artery were performed for compound administration and monitoring blood presure, respectively. The trachea was cannulated for respiration at a constant volume via a miniature starling pump. A Validyne differential pressure transducer (±20 cm H2 O) sensed transpleural pressure via a 15 gauge needle inserted into the pleural cavity and a sidearm from the tracheal cannula. Tidal volume was sensed by another Validyne differential pressure transducer (±2 cm H2 O) from pressure changes inside the plethysmograph. An on-line Buxco pulmonary mechanics computer calculated air flow, dynamic lung compliance and lung resistance. The values were recorded on a print-out.
The guinea pigs were pretreated with succinyl choline (1.2 mg/kg, i.v.) to arrest spontaneous respiration. A control challenge of arachidonic acid (0.5-1.0 mg/kg, i.v.) was administered, and the animals were then dosed with the test compound by various routes. At least 10 minutes were allowed to expire between arachidonic acid challenges. A second challenge was given and compared to the control response. This comparison was indicative of cyclooxygenase inhibition. Indomethacin (10 mg/kg, i.v.) was administered immediately after the second challenge. A third challenge of a higher dose of arachidonic acid (5-10 mg/kg, i.v.) was given. This response was induced by SRS-A and compared to the responses elicited by a separate control group of animals. Activity was indicative of lipoxygenase inhibition. Propranolol (0.005 mg/kg, i.v.) may be given prior to the third challenge to enhance the response to SRS-A.
Bronchoconstriction induced by arachidonic acid with or without indomethacin was expressed as maximum percent change in dynamic lung compliance (Cdyn) and maximum percent increase in lung resistance (RL). Each guinea pig served as its own control for cyclooxygenase evaluation, while a treated group was compared to a control group for lipoxygenase evaluation. The results are shown in Table II and are expressed as the percent inhibition of control.

[2] = with indomethacin (10 mg/kg, i.v.), read-out: Bronchodilating Activity, % Inhibition of Arachidonate Induced Bronchospasm, with Indomethacin
[3] = without indomethacin, read-out: Bronchodilating Activity, % Inhibition of Arachidonate Induced Bronchospasm, without Indomethacin
[4] = iv, with indomethacin (10 mg/kg, i.v.), read-out: Bronchodilating Activity, % Inhibition of Arachidonate Induced Bronchospasm, with Indomethacin

SMILES	inhibition at 3 µM (5-lipoxygenase)	inhibition in vivo at 15 mg/kg [1, 2]	inhibition in vivo at 15 mg/kg [1, 3]	other results
CN(O)C(=O)/C=C/c1ccc(F)cc1 [Example 1, 4-Fluoro-N-methylcinnamohydroxamic acid]	30%	–	–	–
COc1ccc(OC)c(/C=C/C(=O)N(C)O)c1 [Example 2, 2,5-Dimethoxy-N-methylcinnamohydroxamic acid]	53%	49%	65%	–
COc1cc(/C=C/C(=O)N(C)O)cc(OC)c1OC [Example 3, 3,4,5-Trimethoxy-N-methycinnamohydroxamic acid]	91%	89%	0%	–
COc1ccc(/C=C/C(=O)N(C)O)cc1OC [Example 4, 3,4-Dimethoxy-N-methylcinnamohydroxamic acid]	89%	90%	82%	IC50 (5-lipoxygenase): 600 nM
CN(O)C(=O)/C=C/c1ccc(Cl)c(O)c1 [Example 5, 4-Chloro-3-hydroxy-N-methylcinnamohydroxamic acid]	35%	–	–	–
COc1ccc(/C=C/C(=O)NO)cc1OC [Example 6, 3,4-Dimethoxycinnamohydroxamic acid]	17%	–	–	inhibition in vivo at 10 mg/kg [1, 4]: 61%; inhibition in vivo at 10 mg/kg [1, 3]: 77%
Cc1ccc(/C=C/C(=O)N(C)O)cc1 [Example 7, N,4-Dimethylcinnamohydroxamic acid]	–	89%	96%	inhibition in vivo at 100 mg/kg [1, 4]: 0%; inhibition in vivo at 100 mg/kg [1, 3]: 59%; IC50 (5-lipoxygenase): 550 nM
COc1ccccc1/C=C/C(=O)N(C)O [Example 8, 2-Methoxy-N--methylcinnamohydroxamic acid]	66%	73%	94%	inhibition in vivo at 50 mg/kg [1, 4]: 58%; inhibition in vivo at 50 mg/kg [1, 3]: -76%
COc1ccccc1/C=C\C(=O)N(C)O [Example 9, Cis-2-methoxy-N--methylcinnamohydroxamic acid]	59%	36%	29%	–
COc1cc(/C=C/C(=O)N(C)O)cc(OC)c1O [Example 10, 3,5-Dimethoxy-4-hydroxy-N--methylcinnamohydroxamic acid]	17%	–	–	–
CN(O)C(=O)/C=C/c1ccc2c(c1)OCO2 [Example 12, 3,4-Methylenedioxy-N--methylcinnamohydroxamic acid]	53%	58%	15%	–
CN(O)C(=O)/C=C/c1ccc2c(c1)OCCO2 [Example 13, 3,4-(1,2-Ethylenedioxy)-N--methylcinnamohydroxamic acid]	53%	–	–	–
CN(O)C(=O)/C=C/c1ccc(Cl)cc1Cl [Example 14, 2,4-Dichloro-N--methylcinnamohydroxamic acid]	88%	–	–	–
CN(O)C(=O)/C=C/c1c(Cl)cccc1Cl [Example 15, 2,6-Dichloro-N--methylcinnamohydroxamic acid]	24%	–	–	–
CN(O)C(=O)/C=C/c1ccc(Cl)c(Cl)c1 [Example 16, 3,4-Dichloro-N--methylcinnamohydroxamic acid]	87%	86%	62%	–
CN(O)C(=O)/C=C/c1ccccc1 [Example 17, N--Methylcinnamohydroxamic acid]	50%	–	–	inhibition in vivo at 50 mg/kg [1, 4]: 0%; inhibition in vivo at 50 mg/kg [1, 3]: -35%
COc1cc(/C=C/C(=O)N(C)O)cc(OC)c1 [Example 18, 3,5-Dimethoxy-N--methylcinnamohydroxamic acid]	100%	78%	48%	–
COc1cccc(/C=C/C(=O)N(C)O)c1OC [Example 19, 2,3-Dimethoxy-N--methylcinnamohydroxamic acid]	44%	70%	34%	–
COc1ccc(/C=C/C(=O)N(C)O)c(OC)c1 [Example 20, 2,4-Dimethoxy-N--methylcinnamohydroxamic acid]	100%	–	–	inhibition in vivo at 25 mg/kg [1, 4]: 46%; inhibition in vivo at 25 mg/kg [1, 3]: 46%; IC50 (5-lipoxygenase): 430 nM
COc1cccc(OC)c1/C=C/C(=O)N(C)O [Example 22, 2,6-Dimethoxy-N--methylcinnamohydroxamic acid]	41%	–	–	–
CN(O)C(=O)/C=C/c1ccc(Cl)c([N+](=O)[O-])c1 [Example 23, 4-Chloro-3-nitro-N--methylcinnamohydroxamic acid]	30%	–	–	–
COc1cccc(/C=C/C(=O)N(C)O)c1 [Example 24, 3-Methoxy-N--methylcinnamohydroxamic acid]	54%	66%	28%	inhibition in vivo at 50 mg/kg [1, 4]: 49%; inhibition in vivo at 50 mg/kg [1, 3]: 0%
COc1ccc(/C=C/C(=O)N(C)O)cc1 [Example 25, 4-Methoxy-N--methylcinnamohydroxamic acid]	–	29%	0%	IC50 (5-lipoxygenase): 1300 nM
CN(O)C(=O)/C=C/c1ccc(Cl)cc1 [Example 26, 4-Chloro-N--methylcinnamohydroxamic acid]	–	70%	87%	–
CN(O)C(=O)/C=C/c1cc(C(C)(C)C)c(O)c(C(C)(C)C)c1 [Example 27, 3,5-Di-t-butyl-4-hydroxy-N--methyl-cinnamo-hydroxamic acid]	65%	89%	56%	–
